Source: PubChem BioAssay AID2060888 (Molecular Pharmacology Branch, DTP, NCI, 2025)

System: 695427-040-R-J1-PDC complex spheroid viability
Assay: Anticancer human tumor 695427-040-R-J1-PDC patient-derived colon adenocarcinoma cell line growth inhibition [RAS]
Conditions: for IC50: curve of first compound; for viability, T/C: stronger effect = lower value
How it was run: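 Multi-cell-type spheroids: tumor cells plus HUVEC endothelial cells and mesenchymal stem cells. RAS-pathway inhibitors were combined with targeted agents, each dosed in half-log steps down from clinical Cmax, or from 10 microM when Cmax was unknown.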

[1] = second compound 0.00316 µM, first compound 0.0316 µM
[2] = second compound 0.00316 µM, first compound 0.1 µM
[3] = second compound 0.00316 µM, first compound 0.316 µM
[4] = second compound 0.00316 µM, first compound 1 µM
[5] = second compound 0.00316 µM, first compound 3.16 µM
[6] = second compound 0.00316 µM, first compound 10 µM
[7] = second compound 0.01 µM, first compound 0.0316 µM
[8] = second compound 0.01 µM, first compound 0.1 µM
[9] = second compound 0.01 µM, first compound 0.316 µM
[10] = second compound 0.01 µM, first compound 1 µM
[11] = second compound 0.01 µM, first compound 3.16 µM
[12] = second compound 0.01 µM, first compound 10 µM
[13] = second compound 0.0316 µM, first compound 0.0316 µM
[14] = second compound 0.0316 µM, first compound 0.1 µM
[15] = second compound 0.0316 µM, first compound 0.316 µM
[16] = second compound 0.0316 µM, first compound 1 µM
[17] = second compound 0.0316 µM, first compound 3.16 µM
[18] = second compound 0.0316 µM, first compound 10 µM
[19] = second compound 0.1 µM, first compound 0.0316 µM
[20] = second compound 0.1 µM, first compound 0.1 µM
[21] = second compound 0.1 µM, first compound 0.316 µM
[22] = second compound 0.1 µM, first compound 1 µM
[23] = second compound 0.1 µM, first compound 3.16 µM
[24] = second compound 0.1 µM, first compound 10 µM
[25] = second compound 0.316 µM, first compound 0.0316 µM
[26] = second compound 0.316 µM, first compound 0.1 µM
[27] = second compound 0.316 µM, first compound 0.316 µM
[28] = second compound 0.316 µM, first compound 1 µM
[29] = second compound 0.316 µM, first compound 3.16 µM
[30] = second compound 0.316 µM, first compound 10 µM
[31] = second compound 1 µM, first compound 0.0316 µM
[32] = second compound 1 µM, first compound 0.1 µM
[33] = second compound 1 µM, first compound 0.316 µM
[34] = second compound 1 µM, first compound 1 µM
[35] = second compound 1 µM, first compound 3.16 µM
[36] = second compound 1 µM, first compound 10 µM
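Note: viability read after seven days of drug exposure.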
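Throughout, for viability, T/C: 100% = DMSO vehicle control viability.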

CC1(O)CCCC1n1c(=O)c(C(F)F)cc2cnc(NC3CCN(S(C)(=O)=O)CC3)nc21 (stereo unspecified) + C=CC(=O)N1CCN(c2nc(OCC3CCCN3C)nc3c(F)c(-c4nc(N)cc(C)c4C(F)(F)F)c(Cl)cc23)C(C)C1
IC50 (second compound 0.00316 µM): > 10000 nM
IC50 (second compound 0.01 µM): > 10000 nM
IC50 (second compound 0.0316 µM): > 10000 nM
IC50 (second compound 0.1 µM): > 10000 nM
IC50 (second compound 0.316 µM): > 10000 nM
IC50 (second compound 1 µM): 8820 nM
viability, T/C [1]: 95.4%
viability, T/C [2]: 93.5%
viability, T/C [3]: 101%
viability, T/C [4]: 111%
viability, T/C [5]: 116%
viability, T/C [6]: 59.6%
viability, T/C [7]: 109%
viability, T/C [8]: 91.8%
viability, T/C [9]: 104%
viability, T/C [10]: 109%
viability, T/C [11]: 124%
viability, T/C [12]: 58.1%
viability, T/C [13]: 99.5%
viability, T/C [14]: 96%
viability, T/C [15]: 107%
viability, T/C [16]: 110%
viability, T/C [17]: 122%
viability, T/C [18]: 57.6%
viability, T/C [19]: 94.4%
viability, T/C [20]: 95.3%
viability, T/C [21]: 107%
viability, T/C [22]: 112%
viability, T/C [23]: 126%
viability, T/C [24]: 56.4%
viability, T/C [25]: 99.6%
viability, T/C [26]: 102%
viability, T/C [27]: 97.5%
viability, T/C [28]: 120%
viability, T/C [29]: 124%
viability, T/C [30]: 60.3%
viability, T/C [31]: 97.5%
viability, T/C [32]: 94.5%
viability, T/C [33]: 101%
viability, T/C [34]: 118%
viability, T/C [35]: 120%
viability, T/C [36]: 43.1%

CCC(CC)c1cc(NC2CCC(N)C2)n2nccc2n1 (stereo unspecified) + C=CC(=O)N1CCN(c2nc(OCC3CCCN3C)nc3c(F)c(-c4nc(N)cc(C)c4C(F)(F)F)c(Cl)cc23)C(C)C1
IC50 (second compound 0.00316 µM): 1920 nM
IC50 (second compound 0.01 µM): 2070 nM
IC50 (second compound 0.0316 µM): 1950 nM
IC50 (second compound 0.1 µM): 1870 nM
IC50 (second compound 0.316 µM): 1950 nM
IC50 (second compound 1 µM): 1800 nM
viability, T/C [1]: 93.3%
viability, T/C [2]: 94.8%
viability, T/C [3]: 109%
viability, T/C [4]: 106%
viability, T/C [5]: 9.52%
viability, T/C [6]: 12.3%
viability, T/C [7]: 105%
viability, T/C [8]: 96.1%
viability, T/C [9]: 119%
viability, T/C [10]: 116%
viability, T/C [11]: 15.3%
viability, T/C [12]: 11.1%
viability, T/C [13]: 105%
viability, T/C [14]: 99.4%
viability, T/C [15]: 105%
viability, T/C [16]: 101%
viability, T/C [17]: 13%
viability, T/C [18]: 11.9%
viability, T/C [19]: 100%
viability, T/C [20]: 98.2%
viability, T/C [21]: 116%
viability, T/C [22]: 94.4%
viability, T/C [23]: 13.1%
viability, T/C [24]: 12.1%
viability, T/C [25]: 89.4%
viability, T/C [26]: 95.8%
viability, T/C [27]: 105%
viability, T/C [28]: 111%
viability, T/C [29]: 12.4%
viability, T/C [30]: 14.7%
viability, T/C [31]: 89.9%
viability, T/C [32]: 97.2%
viability, T/C [33]: 105%
viability, T/C [34]: 90.9%
viability, T/C [35]: 7.42%
viability, T/C [36]: 13.8%

CCN1CCN(Cc2ccc(Nc3ncc(F)c(-c4cc(F)c5nc(C)n(C(C)C)c5c4)n3)nc2)CC1 + C=CC(=O)N1CCN(c2nc(OCC3CCCN3C)nc3c(F)c(-c4nc(N)cc(C)c4C(F)(F)F)c(Cl)cc23)C(C)C1
IC50 (second compound 0.00316 µM): > 1000 nM
IC50 (second compound 0.01 µM): > 1000 nM
IC50 (second compound 0.0316 µM): > 1000 nM
IC50 (second compound 0.1 µM): > 1000 nM
IC50 (second compound 0.316 µM): > 1000 nM
IC50 (second compound 1 µM): > 1000 nM
viability, T/C (second compound 0.00316 µM, first compound 0.00316 µM): 93%
viability, T/C (second compound 0.00316 µM, first compound 0.01 µM): 88.4%
viability, T/C [1]: 88.5%
viability, T/C [2]: 88.8%
viability, T/C [3]: 101%
viability, T/C [4]: 103%
viability, T/C (second compound 0.01 µM, first compound 0.00316 µM): 107%
viability, T/C (second compound 0.01 µM, first compound 0.01 µM): 92.2%
viability, T/C [7]: 94.1%
viability, T/C [8]: 92.4%
viability, T/C [9]: 101%
viability, T/C [10]: 108%
viability, T/C (second compound 0.0316 µM, first compound 0.00316 µM): 106%
viability, T/C (second compound 0.0316 µM, first compound 0.01 µM): 96.3%
viability, T/C [13]: 95.3%
viability, T/C [14]: 91.6%
viability, T/C [15]: 109%
viability, T/C [16]: 105%
viability, T/C (second compound 0.1 µM, first compound 0.00316 µM): 89%
viability, T/C (second compound 0.1 µM, first compound 0.01 µM): 102%
viability, T/C [19]: 90.3%
viability, T/C [20]: 92.1%
viability, T/C [21]: 107%
viability, T/C [22]: 110%
viability, T/C (second compound 0.316 µM, first compound 0.00316 µM): 95.5%
viability, T/C (second compound 0.316 µM, first compound 0.01 µM): 94.3%
viability, T/C [25]: 96.7%
viability, T/C [26]: 94.7%
viability, T/C [27]: 101%
viability, T/C [28]: 97%
viability, T/C (second compound 1 µM, first compound 0.00316 µM): 94.8%
viability, T/C (second compound 1 µM, first compound 0.01 µM): 85.6%
viability, T/C [31]: 93.7%
viability, T/C [32]: 96.6%
viability, T/C [33]: 99%
viability, T/C [34]: 94.8%
